# From patent publication US11077090B2, “Compounds and compositions and uses thereof” (Sunovion Pharmaceuticals Inc., priority 2016, dated 2021)
# System: compound-treated mice
# Assay: Neuropharmacological assay (SmartCube): behavioral activity signature and minimal effective dose
# Assay type: in vivo
# Details: for minimal effective dose: Mus musculus, ip, MED = dose having 50% or more total activity, read-out: Potency: minimal effective dose (MED); for AD: ADHD (probability of activity signature) / AG: analgesic (probability of activity signature) / AX: anxiolytic (probability of activity signature) / CE: cognitive enhancer (probability of activity signature) / DP: anti-depressant (probability of activity signature) / MS: mood stabilizer (probability of activity signature) / PS: anti-psychotic (probability of activity signature) / SD: sedative hypnotic (probability of activity signature) / UN: uncharacterized CNS activity (probability of activity signature): i.p. 15 min before test, most efficacious dose(s)
# Procedure, shortened: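 Mice dosed i.p. 15 min before test, compound in N-methyl-2-pyrrolidone/PEG/propylene glycol, 3 doses; video-captured behavior matched to reference-drug signatures, giving per-class probabilities at most efficacious dose. MED from doses typically 0.3–30 mpk, defined as lowest dose with ≥50% total activity.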
Compound,minimal effective dose,AD: ADHD (probability of activity signature),AG: analgesic (probability of activity signature),AX: anxiolytic (probability of activity signature),CE: cognitive enhancer (probability of activity signature),DP: anti-depressant (probability of activity signature),MS: mood stabilizer (probability of activity signature),PS: anti-psychotic (probability of activity signature),SD: sedative hypnotic (probability of activity signature),UN: uncharacterized CNS activity (probability of activity signature)
Cc1ccc2c(c1)C(N(C)C)CCOC2.Cl (stereo not drawn) [Example 62],3 to 10 mg/kg,+ (LOQ ≤ + <5%),++ (5% ≤ ++ <25%),++ (5% ≤ ++ <25%),+++ (25% ≤ +++ <50%),++ (5% ≤ ++ <25%),++ (5% ≤ ++ <25%),++ (5% ≤ ++ <25%),+ (LOQ ≤ + <5%),++++ (50% ≤ ++++)
"Cc1ccc2c(c1)C(N)C(C)(C)COC2.Cl (stereo not drawn) [Example 63, 4,4,7-Trimethyl-1,3,4,5-tetrahydrobenzo[c]oxepin-5-amine hydrochloride]",10 to 30 mg/kg,+ (LOQ ≤ + <5%),++ (5% ≤ ++ <25%),++ (5% ≤ ++ <25%),++ (5% ≤ ++ <25%),++ (5% ≤ ++ <25%),+ (LOQ ≤ + <5%),+ (LOQ ≤ + <5%),+ (LOQ ≤ + <5%),++ (5% ≤ ++ <25%)
"CC1(N)COCc2ccc(F)cc21.Cl (stereo not drawn) [Example 68, 6-Fluoro-4-methylisochroman-4-amine hydrochloride]",10 to 30 mg/kg,+ (LOQ ≤ + <5%),++ (5% ≤ ++ <25%),++ (5% ≤ ++ <25%),++ (5% ≤ ++ <25%),++ (5% ≤ ++ <25%),+ (LOQ ≤ + <5%),++ (5% ≤ ++ <25%),+ (LOQ ≤ + <5%),++ (5% ≤ ++ <25%)
Cc1ccc2c(c1C)[C@H](N)[C@H](C)OC2.Cl [Example 78],3 to 10 mg/kg,+ (LOQ ≤ + <5%),++ (5% ≤ ++ <25%),++ (5% ≤ ++ <25%),++ (5% ≤ ++ <25%),++ (5% ≤ ++ <25%),+ (LOQ ≤ + <5%),+++ (25% ≤ +++ <50%),+ (LOQ ≤ + <5%),++++ (50% ≤ ++++)
Cc1ccc2c(c1C)[C@H](N)[C@@H](C)OC2.Cl [Example 79],3 to 10 mg/kg,+ (LOQ ≤ + <5%),++ (5% ≤ ++ <25%),+++ (25% ≤ +++ <50%),++ (5% ≤ ++ <25%),++ (5% ≤ ++ <25%),+ (LOQ ≤ + <5%),++ (5% ≤ ++ <25%),++ (5% ≤ ++ <25%),++ (5% ≤ ++ <25%)
C[C@@H]1OCc2cccc(Cl)c2[C@@H]1N.Cl [Example 80],< 3 mg/kg,+ (LOQ ≤ + <5%),++ (5% ≤ ++ <25%),+++ (25% ≤ +++ <50%),+ (LOQ ≤ + <5%),+ (LOQ ≤ + <5%),+ (LOQ ≤ + <5%),++ (5% ≤ ++ <25%),++ (5% ≤ ++ <25%),+++ (25% ≤ +++ <50%)
C[C@H]1OCc2cccc(Cl)c2[C@@H]1N.Cl [Example 81],< 3 mg/kg,+ (LOQ ≤ + <5%),++ (5% ≤ ++ <25%),+++ (25% ≤ +++ <50%),++ (5% ≤ ++ <25%),++ (5% ≤ ++ <25%),+ (LOQ ≤ + <5%),++ (5% ≤ ++ <25%),++ (5% ≤ ++ <25%),+++ (25% ≤ +++ <50%)
Cc1cccc2c1[C@H](N)[C@H](C)OC2.Cl [Example 82],< 3 mg/kg,+ (LOQ ≤ + <5%),++ (5% ≤ ++ <25%),+++ (25% ≤ +++ <50%),++ (5% ≤ ++ <25%),++ (5% ≤ ++ <25%),+ (LOQ ≤ + <5%),++ (5% ≤ ++ <25%),++ (5% ≤ ++ <25%),+++ (25% ≤ +++ <50%)
Cc1cccc2c1[C@H](N)[C@@H](C)OC2.Cl [Example 83],3 to 10 mg/kg,+ (LOQ ≤ + <5%),++ (5% ≤ ++ <25%),++ (5% ≤ ++ <25%),++ (5% ≤ ++ <25%),+ (LOQ ≤ + <5%),+ (LOQ ≤ + <5%),++ (5% ≤ ++ <25%),+ (LOQ ≤ + <5%),++++ (50% ≤ ++++)
COc1ccc2c(c1)[C@H](N)[C@H](C)OC2.Cl [Example 84],3 to 10 mg/kg,+ (LOQ ≤ + <5%),++ (5% ≤ ++ <25%),++++ (50% ≤ ++++),++ (5% ≤ ++ <25%),++ (5% ≤ ++ <25%),+ (LOQ ≤ + <5%),++ (5% ≤ ++ <25%),+ (LOQ ≤ + <5%),+++ (25% ≤ +++ <50%)
COc1ccc2c(c1)[C@H](N)[C@@H](C)OC2.Cl [Example 85],3 to 10 mg/kg,+ (LOQ ≤ + <5%),+++ (25% ≤ +++ <50%),++ (5% ≤ ++ <25%),++ (5% ≤ ++ <25%),++ (5% ≤ ++ <25%),+ (LOQ ≤ + <5%),+ (LOQ ≤ + <5%),+ (LOQ ≤ + <5%),+++ (25% ≤ +++ <50%)
C[C@@H]1OCc2c(Cl)cccc2[C@@H]1N.Cl [Example 86],10 to 30 mg/kg,+ (LOQ ≤ + <5%),++ (5% ≤ ++ <25%),++ (5% ≤ ++ <25%),++ (5% ≤ ++ <25%),+ (LOQ ≤ + <5%),+ (LOQ ≤ + <5%),++ (5% ≤ ++ <25%),+ (LOQ ≤ + <5%),+++ (25% ≤ +++ <50%)
C[C@H]1OCc2c(Cl)cccc2[C@@H]1N.Cl [Example 87],3 to 10 mg/kg,+ (LOQ ≤ + <5%),++ (5% ≤ ++ <25%),++ (5% ≤ ++ <25%),++ (5% ≤ ++ <25%),++ (5% ≤ ++ <25%),+ (LOQ ≤ + <5%),++ (5% ≤ ++ <25%),++ (5% ≤ ++ <25%),+++ (25% ≤ +++ <50%)
C[C@@H]1OCc2ccc(F)cc2[C@@H]1N.Cl [Example 88],< 3 mg/kg,+ (LOQ ≤ + <5%),++ (5% ≤ ++ <25%),+++ (25% ≤ +++ <50%),++ (5% ≤ ++ <25%),+ (LOQ ≤ + <5%),+ (LOQ ≤ + <5%),++ (5% ≤ ++ <25%),++ (5% ≤ ++ <25%),+++ (25% ≤ +++ <50%)
C[C@H]1OCc2ccc(F)cc2[C@@H]1N.Cl [Example 89],< 3 mg/kg,+ (LOQ ≤ + <5%),++ (5% ≤ ++ <25%),++ (5% ≤ ++ <25%),++ (5% ≤ ++ <25%),+ (LOQ ≤ + <5%),+ (LOQ ≤ + <5%),++ (5% ≤ ++ <25%),++ (5% ≤ ++ <25%),++++ (50% ≤ ++++)
